From patent US12037344B2, “NLRP3 modulators” (INNATE TUMOR IMMUNITY, INC., priority 2018, dated 2024)
Like-named read-outs stand apart in the source and are kept apart here. One block for each molecule: values may come before it.

Columns and labels:
[1] = biological target: T1, TLR8 (Homo sapiens, UniProt Q9NR97); assay: In vitro human TLR8 binding reporter assay (HEK-Blue, NF-kB/AP1-inducible SEAP); type: cell-based; conditions: activity range class, read-out: TLR8 Agonist EC50
T1 construct: human HEK-Blue cells co-expressing a TLR7 or TLR8 gene
T1 sequence (Q9NR97 27-1041): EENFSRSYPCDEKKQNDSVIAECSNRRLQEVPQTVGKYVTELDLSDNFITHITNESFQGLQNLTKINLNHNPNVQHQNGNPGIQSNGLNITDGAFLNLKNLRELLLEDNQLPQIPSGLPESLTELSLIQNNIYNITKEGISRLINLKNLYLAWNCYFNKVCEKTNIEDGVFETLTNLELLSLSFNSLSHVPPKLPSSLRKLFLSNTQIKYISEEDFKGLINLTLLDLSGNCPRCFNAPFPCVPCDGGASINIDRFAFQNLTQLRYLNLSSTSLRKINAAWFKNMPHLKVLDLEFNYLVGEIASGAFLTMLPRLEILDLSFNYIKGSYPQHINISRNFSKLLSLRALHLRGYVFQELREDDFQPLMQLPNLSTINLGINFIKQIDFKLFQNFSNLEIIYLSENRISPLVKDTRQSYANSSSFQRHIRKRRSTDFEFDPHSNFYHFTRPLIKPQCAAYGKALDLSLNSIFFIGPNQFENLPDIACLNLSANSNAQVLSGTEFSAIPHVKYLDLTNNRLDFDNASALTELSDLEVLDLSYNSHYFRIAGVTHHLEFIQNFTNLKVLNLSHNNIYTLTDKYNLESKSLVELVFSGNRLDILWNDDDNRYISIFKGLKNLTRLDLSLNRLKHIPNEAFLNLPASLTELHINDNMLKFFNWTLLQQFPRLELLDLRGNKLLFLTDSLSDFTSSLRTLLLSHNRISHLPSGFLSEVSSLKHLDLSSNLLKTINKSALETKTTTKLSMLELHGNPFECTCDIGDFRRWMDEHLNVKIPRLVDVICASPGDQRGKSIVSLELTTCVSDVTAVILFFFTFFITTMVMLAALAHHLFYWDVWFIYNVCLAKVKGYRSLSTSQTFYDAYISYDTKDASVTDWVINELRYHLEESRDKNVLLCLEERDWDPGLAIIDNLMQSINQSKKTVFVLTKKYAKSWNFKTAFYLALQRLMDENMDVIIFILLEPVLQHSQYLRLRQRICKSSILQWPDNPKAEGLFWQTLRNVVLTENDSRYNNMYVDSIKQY
Protocol: (§1) In Vitro Human TLR7 and TLR8 Binding Reporter Assays
(§2) Logarithmically-growing human HEK-Blue cells co-expressing a TLR7 or TLR8 gene and a NF-kB/AP1-inducible SEAP (secreted embryonic alkaline phosphatase; Invivogen, San Diego, CA) reporter gene are added to individual wells of a 384-well plate (15,000 cells per 20 μL per well) and maintained for 24 h at 37° C., 5% CO2. Test compounds or DMSO are distributed to separate wells the next day using acoustic liquid handling technology (100 nL per well) and cells are subsequently incubated for 18 h at 37° C., 5% CO2. Cellular SEAP production is measured using an Envision plate reader instrument thirty minutes after adding freshly-made Quanti-Blue reagent (prepared by following manufacturer instructions; Invivogen, San Diego, CA) to the HEK-Blue TLR Nf-kB-SEAP cell reactions. All EC50 values (half-maximal effective concentration) are determined using proprietary data analysis software. Normalized EC50 value=absolute value determined by setting 100% Ymax using a reference standard RLU (relative light unit) values from cells treated with 50 μM of the reference standard.

[2] = biological target: T2, TLR7 (Homo sapiens, UniProt Q9NYK1); assay: In vitro human TLR7 binding reporter assay (HEK-Blue, NF-kB/AP1-inducible SEAP); type: cell-based; conditions: activity range class, read-out: TLR7 Agonist EC50
T2 construct: human HEK-Blue cells co-expressing a TLR7 or TLR8 gene
T2 sequence (Q9NYK1 27-1049): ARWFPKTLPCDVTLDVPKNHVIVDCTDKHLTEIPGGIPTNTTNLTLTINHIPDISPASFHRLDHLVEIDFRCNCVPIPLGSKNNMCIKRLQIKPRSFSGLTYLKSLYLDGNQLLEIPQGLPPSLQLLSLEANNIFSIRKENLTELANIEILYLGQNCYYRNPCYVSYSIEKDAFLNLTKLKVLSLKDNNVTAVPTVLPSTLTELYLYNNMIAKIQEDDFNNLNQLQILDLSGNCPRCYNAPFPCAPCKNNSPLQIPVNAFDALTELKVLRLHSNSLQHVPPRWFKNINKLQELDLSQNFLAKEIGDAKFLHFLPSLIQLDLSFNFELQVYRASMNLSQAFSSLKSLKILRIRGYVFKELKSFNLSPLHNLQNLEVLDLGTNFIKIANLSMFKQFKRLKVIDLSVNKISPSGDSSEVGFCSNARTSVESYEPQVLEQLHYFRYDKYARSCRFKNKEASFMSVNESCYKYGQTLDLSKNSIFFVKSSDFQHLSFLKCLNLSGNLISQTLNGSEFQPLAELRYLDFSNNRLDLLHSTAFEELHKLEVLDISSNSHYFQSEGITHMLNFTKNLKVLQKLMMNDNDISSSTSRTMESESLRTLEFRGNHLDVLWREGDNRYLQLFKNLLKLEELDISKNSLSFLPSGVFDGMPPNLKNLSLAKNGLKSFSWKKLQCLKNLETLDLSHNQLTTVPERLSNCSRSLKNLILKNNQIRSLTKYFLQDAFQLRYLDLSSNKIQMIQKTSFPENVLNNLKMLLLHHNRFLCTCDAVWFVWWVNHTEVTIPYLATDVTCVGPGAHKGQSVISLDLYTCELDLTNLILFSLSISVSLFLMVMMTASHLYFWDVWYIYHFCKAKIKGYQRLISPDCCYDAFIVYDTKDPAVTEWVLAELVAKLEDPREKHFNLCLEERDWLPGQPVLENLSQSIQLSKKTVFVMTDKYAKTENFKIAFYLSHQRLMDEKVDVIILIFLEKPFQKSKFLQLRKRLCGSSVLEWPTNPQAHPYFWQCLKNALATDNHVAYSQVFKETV
Protocol: as §1, §2

[3] = test system: THP-1 cells; assay: Measurement of IL-1β production, hTRF protocol (second alternative procedure), THP-1 cells; type: cell-based, human; conditions: human, read-out: NLRP3 hILIB EC50
Protocol: Measurement of IL-1β Production—hTRF Protocol (Second Alternative Procedure)
Serial dilutions of compounds in DMSO were added to low volume 384 well plates at 100 nl/well using an ECHO 550 acoustic dispenser (Labcyte) to achieve final starting concentration of 10 μM in assay.
THP-1 cells in RPMI (Gibco, 11875) media with 10% FBS at a density of 1×10^6 cell/ml in a T175 flask were treated with a final concentration of phorbol 12-myristate 13-acetate (PMA) (Sigma, P1585) of 50 ng/ml overnight at 37° C. at 5% CO2 for differentiation. Cells were harvested the next day after rinsing well with dPBS using 0.5% trypsin. A cell solution was prepared of 1×10^6 cells/ml for 50,000 cells in 50 μl/well in RPMI media with 2% FBS. Cells were plated using a multichannel pipette onto the compound dilutions in Greiner, 384 well, black clear bottom tissue culture treated plates (781090). The plates were incubated in 37° C. incubator at 5% CO2 for 2 hours.
After the 2 hour incubation, the cell plates were spun in the centrifuge for 5 minutes at 1200 rpm. Using the Felix (CyBio), 8 μl of the supernatant was transferred to 384 well, low volume, white proxy plates. (Perkin Elmer, 6008230). A human IL1beta hTRF kit was used to analyze the supernatant (CISBIO, 62HIL1BPEG). The kit instructions were followed for preparing the IL1Beta standard curve and then the antibodies from the kit were diluted 1:40 rather than 1:20 as kit instructed. Once combined, the antibodies were added across the plates, 5 μl/well. The plates were sealed and incubated at 4° C. overnight. The plates were then read on the Perkin Elmer EnVision at 665/615 nm using the hTRF laser.

[4] = Homo sapiens, THP-1, IL-1β production

Structure (SMILES): CC(=O)NC(C)Cn1cc2c(N)nc3cc(-c4ccn[nH]4)ccc3c2n1 (single isomer, unassigned) [Example 299]
EC50 [1]: > 100 µM
EC50 [2]: > 100 µM
EC50 ([3]; IL-1β production): 2.92 µM

Structure (SMILES): CC(=O)NC(C)Cn1cc2c(N)nc3cc(-c4ccn[nH]4)ccc3c2n1 (single isomer, unassigned) [Example 300]
EC50 [1]: > 100 µM
EC50 [2]: > 100 µM
EC50 ([3]; IL-1β production): 7.36 µM

Structure (SMILES): Nc1nc2cc(-c3cc[nH]n3)ccc2c2nn(C3CCCC3O)cc12 (single isomer, unassigned) [Example 314]
EC50 [1]: > 100 µM
EC50 [2]: > 100 µM
EC50 [3, 4]: 0.49 µM

Structure (SMILES): Nc1nc2cc(-c3cc[nH]n3)ccc2c2nn(C3CCCC3O)cc12 (single isomer, unassigned) [Example 315]
EC50 [1]: > 100 µM
EC50 [2]: > 100 µM
EC50 ([3]; IL-1β production): 0.89 µM

Structure (SMILES): Nc1nc2cc(-c3cc[nH]n3)ccc2c2nn(C3CCCC3O)cc12 (single isomer, unassigned) [Example 316]
EC50 [1]: > 100 µM
EC50 [2]: > 100 µM
EC50 ([3]; IL-1β production): 0.89 µM

Structure (SMILES): Nc1nc2cc(-c3cc[nH]n3)ccc2c2nn(C3CCCCC3O)cc12 (single isomer, unassigned) [Example 318]
EC50 [1]: > 100 µM
EC50 [2]: > 100 µM
EC50 ([3]; IL-1β production): 3.09 µM

Structure (SMILES): Nc1nc2cc(-c3cc[nH]n3)ccc2c2nn(C3CCCCC3O)cc12 (single isomer, unassigned) [Example 319]
EC50 [1]: > 100 µM
EC50 [2]: > 100 µM
EC50 ([3]; IL-1β production): 1.13 µM

Structure (SMILES): Nc1nc2cc(-c3cc[nH]n3)ccc2c2nn(C3COCC3O)cc12 (single isomer, unassigned) [Example 324]
EC50 [1]: > 100 µM
EC50 [2]: > 100 µM
EC50 [3, 4]: 1.57 µM

Structure (SMILES): Nc1nc2cc(-c3cc[nH]n3)ccc2c2nn(C3COCC3O)cc12 (single isomer, unassigned) [Example 325]
EC50 [1]: > 100 µM
EC50 [2]: > 100 µM
EC50 ([3]; IL-1β production): 1.49 µM

Structure (SMILES): Nc1nc2cc(-c3cc[nH]n3)ccc2c2nn(CC3CCOC3)cc12 (single isomer, unassigned) [Example 327]
EC50 [1]: > 100 µM
EC50 [2]: > 100 µM
EC50 [3, 4]: 0.7 µM

Structure (SMILES): Nc1nc2cc(-c3ccn[nH]3)ccc2c2oc(CCCOCc3ccccc3)nc12 [Example 146, 2-[3-(benzyloxy)propyl]-7-(1H-pyrazol-3-yl)-[1,3]oxazolo[4,5-c]quinolin-4-amine]
EC50 [3, 4]: 7.94 µM

Structure (SMILES): Nc1nc2cc(-c3cc[nH]n3)ccc2c2cc(CCCO)oc12 [Example 148, 3-[4-amino-7-(1H-pyrazol-3-yl)furo[2,3-c]quinolin-2-yl]propan-1-ol]
EC50 [3, 4]: 2.03 µM

Structure (SMILES): NCCc1cc2c(N)nc3cc(-c4ccn[nH]4)ccc3c2[nH]1 [Example 152, 2-(2-aminoethyl)-7-(1H-pyrazol-5-yl)-1H-pyrrolo[3,2-c]quinolin-4-amine]
EC50 [3, 4]: 3.79 µM

Structure (SMILES): Nc1nc2cc(-n3cccn3)ccc2c2cn(CCNC(=O)c3ccc(F)cn3)nc12 [Example 184]
EC50 [2]: > 100 µM
EC50 [3, 4]: 0.1 µM

The remaining lines, values ahead:

EC50 [1]: > 100 µM
EC50 [2]: > 100 µM
EC50 [3, 4]: 0.09 µM
Structure (SMILES): Nc1nc2cc(-c3cc[nH]n3)ccc2c2nn(C3CCOC3)cc12 (racemic) [Example 237]

EC50 [1]: > 100 µM
EC50 [2]: > 100 µM
EC50 [3, 4]: 0.33 µM
Structure (SMILES): Nc1nc2cc(-c3cc[nH]n3)ccc2c2nn([C@@H]3CC[C@H](O)C3)cc12 (relative stereo) [Example 210, cis-3-(4-amino-7-(1H-pyrazol-3-yl)-2H-pyrazolo[4,3-c]quinolin-2-yl)cyclopentan-1-ol]

EC50 [1]: > 100 µM
EC50 [2]: > 100 µM
EC50 [3, 4]: 25.8 µM
Structure (SMILES): CN1CCOC(C(=O)NCCn2cc3c(n2)c(N)nc2cc(-c4cc[nH]n4)ccc23)C1 (single isomer, unassigned) [Example 179]

EC50 [1]: > 100 µM
EC50 [2]: > 100 µM
EC50 ([3]; IL-1β production): 36.7 µM
Structure (SMILES): CN1CCOC(C(=O)NCCn2cc3c(n2)c(N)nc2cc(-c4cc[nH]n4)ccc23)C1 (single isomer, unassigned) [Example 180]

EC50 [1]: > 100 µM
EC50 [2]: > 100 µM
EC50 ([3]; IL-1β production): 0.72 µM
Structure (SMILES): Nc1nc2cc(-c3cc[nH]n3)ccc2c2nn(C3CCOC3)cc12 (single isomer, unassigned) [Example 238]

EC50 [1]: > 100 µM
EC50 [2]: > 100 µM
EC50 ([3]; IL-1β production): 0.21 µM
Structure (SMILES): Nc1nc2cc(-c3cc[nH]n3)ccc2c2nn(C3CCOC3)cc12 (single isomer, unassigned) [Example 239]

EC50 [1]: > 100 µM
EC50 [2]: > 100 µM
EC50 [3, 4]: 0.26 µM
Structure (SMILES): CC(CCO)n1cc2c(N)nc3cc(-c4cc[nH]n4)ccc3c2n1 (single isomer, unassigned) [Example 287, 3-(4-amino-7-(1H-pyrazol-3-yl)-2H-pyrazolo[4,3-c]quinolin-2-yl)butan-1-ol]

EC50 [1]: > 100 µM
EC50 [2]: > 100 µM
EC50 ([3]; IL-1β production): 0.45 µM
Structure (SMILES): CC(CCO)n1cc2c(N)nc3cc(-c4cc[nH]n4)ccc3c2n1 (single isomer, unassigned) [Example 288, 3-(4-amino-7-(1H-pyrazol-3-yl)-2H-pyrazolo[4,3-c]quinolin-2-yl)butan-1-ol]
